Assay results published in US20150374705A1, “Substances for treatment or relief of pain” (Shanghai Institues for Biological Sciences, priority 2012, published 2015).
Entries after “also recorded” stand apart in the source; their conditions may differ.

How the values were obtained:
[1] = test system: pentetrazol induced epilepsy in rats; test: Pentetrazol induced epilepsy assay; assay type: in vivo; conditions: rat, subcutaneous 1, 3, 10 and 15 mg/kg, 100 mg/kg pentetrazol 0.5 hour later
Experimental: Pentetrazol induced epilepsy assays: firstly, C5 or 70% PGE400 was injected to rats, and then 100 mg/kg pentetrazol was subcutaneously injected to rats half an hour later. Pentetrazol was dissolved in saline water. Then the convulsive response of rats was observed. Fatholahi standard was adopted to score the convulsive response. Grade 0, no response; Grade 1, rhythmic mouth and face spasm; Grade 2, fluctuating wandering spasm of body; Grade 3, systemic myoclonus and warped hip; Grade 4, body turning to one side; Grade 5, renvers and systemic tetanic convulsion. It took 30 minutes for observation after administration. The highest grade and the latency time from pentetrazol injection to the induction of the highest grade were collected.

[2] = test system: SNI model rats (neuropathic pain); test: Spared nerve injury (SNI) model, neuropathic pain, mechanical pain threshold; assay type: in vivo; conditions: rat
Experimental: Male SD rats (200-250 g) were used, 6 per group in the cage. All the animals were placed under 12 hours light/cycle (i.e. 12 hours light and 12 hours dark in each day), free to food and water. All the experiments were conducted under the condition that the observers were blind to pharmaceutical treatment.
Spared nerve injury model (SNI): 10% chloral hydrate was injected intraperitoneally to anesthetize rats. […] The muscle was longitudinally separated to expose the core of sciatic nerve and the branching below: tibial nerve, common peroneal nerve and sural nerve. The tibial nerve and common peroneal nerve were ligatured and cut and small sural nerve was retained, meanwhile preventing any injury. The muscle and skin were sutured layer by layer, and then antibiotics were injected intraperitoneally for antibacterial purpose. For detailed methods, please refer to Decosterd I and Woolf C J. Spared nerve injury: an animal model of persistent peripheral neuropathic pain. 2000 August; Pain 87(2):149-58.
Method for detecting mechanical hyperalgesia in rats: firstly CFA solution was injected in the thenar of rats. After 24 hours, mechanical hyperalgesia quantitative detection was adopted to measure the paw withdrawal of rats to normal and harmless mechanical stimulation. Evaluation was conducted according to reference (Chaplan S R et al., Quantitative assessment of tactile allodynia in the rat paw. J Neurosci Methods. 1994 July; 53(1):55-63). In this method, the von Frey fibers with different bending force (equivalent to the range of 1-50 g force) were used to apply harmless mechanical stimulation. The rats were placed in organic glass box with metal mesh plate, and the von Frey fibers were applied on the surface of leg thenar. The von Frey fibers were applied vertically to the surface of thenar to generate the force that will trigger slight resistance to the leg. 2-3 seconds were maintained for every leg thenar. If the leg withdrew suddenly, positive records were recorded. The threshold was the mean of the weight that caused 50% paw withdrawal response (5-6 paw withdrawal/10 stimulations) in overall 10 stimulations.
Compounds MRK 016, C2, C3, C4, C5, C6, C7, C8 or α5IA (A5I) were dissolved in 70% PGE400 (PGE400:water=70:30 in volume). For injection dose, MRK016 was 2 mg/kg body weight; A5I was 3 mg/kg body weight; C2, C3, C4, C5, C6, C7 and C8 were 3 mg/kg body weight.
MRK016-M3 was dissolved in 90% PGE400 (PGE400:water=90:10 in volume). The doses were 10 mg/kg, 3 mg/kg, 1 mg/kg and 0.3 mg/kg, respectively for oral administration.
The method for behavioral data statistics was unpaired t-test. *, p<0.05, represents significant difference.

[3] = test system: CFA induced inflammatory pain model rats (heat pain); test: CFA induced inflammatory pain model, heat pain threshold; assay type: in vivo; conditions: rat, 1 hour after administration
[4] = test system: CFA induced inflammatory pain model rats (mechanical pain); test: CFA induced inflammatory pain model, mechanical pain threshold; assay type: in vivo; conditions: rat, 1 hour after administration
[5] = test system: α5-GABAA receptor in central nervous system; conditions: in vivo, Jones et al. 2006; cited from earlier work
[6] = molecular target: T1, Human recombinant GABAA receptor containing α3 subunit (Homo sapiens, UniProt P18507+P34903); test: Electrophysiological inverse agonist efficacy on GABA-induced current; assay type: cell-based; conditions: change of GABA-induced current; negative = inhibition
T1 construct: expressed in transfected cells; host or cells: 293 cell line
Experimental: (§1) Different subunits of GABAA receptor were expressed in cell lines, including human kidney epithelial cell line, 293 cell line or L(tk−) cell line. The cells were cultured in medium, and such cells were used as the cellular model for screening drugs to suppress pain. a subunit, β subunit and γ subunit are indispensable for one complete functional GABAA receptor.
(§2) (d) simultaneously expressing α3 subunit (for the protein sequence, see GenBank accession number NM_000808.3), β3 subunit and γ2 subunit in 293 cell line, forming the GABAA receptor containing α3 subunit;
(§3) The inventors used electrophysiological methods to measure the inverse agonist efficacy of the substances to be measured, see the method described in literature (Ballard T M et al., RO4938581, a novel cognitive enhancer acting at GABAA alpha5 subunit-containing receptors. Psychopharmacology (Berl). 2009 January; 202 (1-3): 207-23). […] Many methods can be used by those skilled in the art to evaluate the binding capacity of the ligand of α5-GABAA receptor to the α5-GABAA receptor, including but not limiting to the method above.
(§4) Inverse agonist efficacy represents the inhibition percentage of the candidate substance on the current induced by GABA through α5-GABAA receptor=(the current intensity induced by GABA through α5-GABAA receptor with the existence of candidate substance−the current intensity induced by GABA through α5-GABAA receptor without the existence of candidate substance)/the current intensity induced by GABA through α5-GABAA receptor without the existence of candidate substance.

[7] = molecular target: T2, Human recombinant GABAA receptor containing α2 subunit (α2, β3, γ2) (Homo sapiens, UniProt P18507+P47869); test: Competitive radioligand binding ([3H]Ro-0151788) on membranes of 293 cells, Ki; conditions: human recombinant GABAA subtype containing α2; read-out: Affinity, nM (α2)
T2 construct: expressed in transfected cells; host or cells: 293 cell line
Experimental: as §1
(§5) In this example, the inventors established the following cellular models:
(§6) (b) simultaneously expressing α1 subunit (GenBank accession number: NM_001127648.1), β3 subunit and γ2 subunit in 293 cell line, forming the GABAA receptor containing α1 subunit; • (c) simultaneously expressing α2 subunit (for the protein sequence, see GenBank accession number NM_000813.2), β3 subunit and γ2 subunit in 293 cell line, forming the GABAA receptor containing α2 subunit;
(§7) Each of the (a) to (d) above could form a GABAA receptor with complete function.
(§8) Then, the cellular membrane was extracted and the protein concentration was measured. The competitive binding of the substances to be measured and radiolabelled compounds (e.g. 1 nM [^3H]Ro-0151788) were detected respectively to calculate the Ki value of the substances to be measured, see the method described in literature (Ballard T M et al., RO4938581, a novel cognitive enhancer acting at GABAA alpha5 subunit-containing receptors. Psychopharmacology (Berl). 2009 January; 202(1-3): 207-23). If the binding inhibition constant Ki (nM) of α5-GABAA receptor with the candidate substances in experimental group is less than the Ki of the receptor containing other a subunit (α1 subunit, α2 subunit or α3 subunit), then the candidate substance is a potential drugs for preventing, relieving or treating pain. Many methods can be used by those skilled in the art to evaluate the binding capacity of the ligand of α5-GABAA receptor to the α5-GABAA receptor, including but not limiting to the method above.

[8] = molecular target: T3, Human recombinant GABAA receptor containing α1 subunit (α1, β3, γ2) (Homo sapiens, UniProt P14867+P18507); test: as above; conditions: human recombinant GABAA subtype containing α1; read-out: Affinity, nM (α1)
T3 construct: expressed in transfected cells; host or cells: 293 cell line
Experimental: as §1, §5, §6, §7, §8

[9] = test system: Human recombinant GABAA receptor containing α2 subunit; test: Electrophysiological inverse agonist efficacy on GABA-induced current; assay type: cell-based; conditions: change of GABA-induced current; negative = inhibition
Experimental: as §1, §6, §3, §4

[10] = molecular target: T4, Human recombinant GABAA receptor containing α1 subunit (Homo sapiens, UniProt P14867+P18507); test: as above; assay type: cell-based; conditions: change of GABA-induced current; negative = inhibition
T4 construct: expressed in transfected cells; host or cells: 293 cell line
Experimental: as §1, §6, §3, §4

[11] = molecular target: T5, Human recombinant GABAA receptor containing α3 subunit (α3, β3, γ2) (Homo sapiens, UniProt P18507+P34903); test: Competitive radioligand binding ([3H]Ro-0151788) on membranes of 293 cells, Ki; conditions: human recombinant GABAA subtype containing α3; read-out: Affinity, nM (α3)
T5 construct: expressed in transfected cells; host or cells: 293 cell line
Experimental: as §1, §5, §2, §7, §8

[12] = human, Phase I; cited from earlier work
[13] = molecular target: T6, Human recombinant GABAA receptor containing α5 subunit (α5, β3, γ2) (Homo sapiens, UniProt P18507+P31644); test: Competitive radioligand binding ([3H]Ro-0151788) on membranes of 293 cells, Ki; conditions: human recombinant GABAA subtype containing α5; read-out: Affinity, nM (α5)
T6 construct: expressed in transfected cells; host or cells: 293 cell line
Experimental: as §1, §5
(§9) (a) simultaneously expressing α5 subunit (for the protein sequence, see GenBank accession number NM_001165037.1), β3 subunit (for the protein sequence, see GenBank accession number NM_021912.4) and γ2 subunit (for the protein sequence, see GenBank accession number NM_198904.2) in 293 cell line, forming the GABAA receptor containing α5 subunit;
as §7, §8

[14] = molecular target: T7, Human recombinant α5-GABAA receptor (Homo sapiens, UniProt P18507+P31644); test: Electrophysiological inverse agonist efficacy on GABA-induced current; assay type: cell-based; conditions: change of GABA-induced current; negative = inhibition
T7 construct: expressed in transfected cells; host or cells: 293 cell line
Experimental: as §1, §9, §3, §4

[15] = molecular target: T7, Human recombinant α5-GABAA receptor; conditions: Jones et al. 2006; cited from earlier work

Compound	Effect on pentetrazol induced epilepsy (responsive grade and latency time) [1]	Neuropathic pain (SNI model), analgesic effect ([2]; 3 mg/kg subcutaneous, 14 days after SNI, 1 hour after administration, 3 mg/kg)	Suppression of neuropathic pain at different time points ([2]; subcutaneous 1 mg/kg or 3 mg/kg, 14 days after SNI, 0.5-12 hours after administration)	CFA induced inflammatory pain model (heat pain), analgesic effect ([3]; 3 mg/kg injection, 3 days after CFA, 3 mg/kg)	CFA induced inflammatory pain model (mechanical pan), analgesic effect ([4]; 3 mg/kg injection, 7 days after CFA, 3 mg/kg)	Binding to α5-GABAA receptor in brain / inhibition of (3H)Ro-15-1788 binding in center [5]	Suppression of neuropathic pain (mechanical pain threshold) ([2]; subcutaneous injection 2 mg/kg, 7 days after SNI model, 1 hour after administration)	Suppression of heat pain ([3]; 2 mg/kg intraperitoneal, 3 days after CFA model, 2 mg/kg)	Inverse agonist efficacy, % (α3) [6] [%]	Ki [7] [nM]	Ki [8] [nM]	Inverse agonist efficacy, % (α2) [9] [%]	Inverse agonist efficacy, % (α1) [10] [%]	Suppression of mechanical pain ([4]; 2 mg/kg intraperitoneal, 7 days after CFA model, 2 mg/kg)	Ki [11] [nM]	Side effects in Phase I clinical trial [12]	Ki [13] [nM]	Inverse agonist efficacy, % (α5) [14] [%]	Inverse agonist effect of α5-GABAA receptor [15]
OCc1cc(-c2nnc3c4ccccc4c(OCc4ccccn4)nn23)no1 [Compound C5, {3-[6-(Pyridin-2-ylmethoxy)-[1,2,4]triazolo[3,4-a]phthalazin-3-yl]-isoxazol-5-yl}-methanol]	no effect	efficiently inhibit nociceptive response; also recorded: efficiently suppressed neuropathic pain	efficiently could inhibit nociceptive response; also recorded: efficiently suppressed neuropathic pain	efficiently inhibit nociceptive response; also recorded: efficiently suppressed heat pain or mechanical pain response	efficiently inhibit nociceptive response; also recorded: efficiently suppressed heat pain or mechanical pain response	–	–	–	–	–	–	–	–	–	–	–	–	–	–
Cc1cc(-c2nncc3c(C(C)(C)C)c(OCc4ncnn4C)nn23)no1 [MRK016, 3-tert-butyl-7-(5-methylisoxazol-3-yl)-2-(1-methyl-1H-1,2,4-triazol-5-ylmethoxy)-pyrazolo[1,5-d]-[1,2,4]triazine]	–	–	–	–	–	can efficiently inhibit; also recorded: focused in the brain	efficiently suppressed neuropathic pain	efficiently suppressed heat pain; also recorded: efficiently suppress heat pain	−9	0.85	0.83	6	−16	efficiently suppressed mechanical pain; also recorded: efficiently suppress mechanical pain	0.77	front heaviness, headache and nausea and vomiting	1.36	−55	–
Cc1cc(-c2nncc3c(C(C)(C)CO)c(OCc4ncnn4C)nn23)no1 [MRK016-M2]	–	–	–	–	–	not capable of binding the α5-GABAA receptor in brain	–	–	−32	–	26	−23	−41	–	9.8	–	9.4	−40	significant inverse agonist effect
